Experiment: photoluminescence quantum yield (fraction); solvent given as SMILES

SMILES: O=C1c2ccccc2C2=Nc3cccc4cccc(c34)N12
- photoluminescence quantum yield (in ClCCl): 0.02

SMILES: C(=C\c1cc2ccccc2c2ccccc12)/c1c2ccccc2cc2ccccc12
- photoluminescence quantum yield (in C1CCOC1): 0.56

SMILES: COc1ccccc1C1=[N+]2C(=Cc3c4cc5ccccc5cc4c(-c4ccccc4OC)n3[B-]2(F)F)c2cc3ccccc3cc21
- photoluminescence quantum yield (in C1CCOC1): 0.29

SMILES: COc1ccc(/C=C/C(F)(F)F)c(N)c1
- photoluminescence quantum yield (in C1CCOC1): 0.32

SMILES: CCOC(=O)C(C(=O)OCC)C1=[N+]2C(=C(c3ccc(C)cc3)c3ccc(Cl)n3[B-]2(F)F)C=C1
- photoluminescence quantum yield (in C1CCCCC1): 0.46
- photoluminescence quantum yield (in C1CCOC1): 0.48
- photoluminescence quantum yield (in CCOC(C)=O): 0.4
- photoluminescence quantum yield (in CO): 0.28
- photoluminescence quantum yield (in Cc1ccccc1): 0.79
- photoluminescence quantum yield (in ClC(Cl)Cl): 0.52

SMILES: N#Cc1c(N2CCCCC2)cc(-c2ccc(-c3ccccc3)s2)c2c1CCc1ccccc1-2
- photoluminescence quantum yield (in C1CCOC1): 0.23

SMILES: C[Si](C)(C)c1cc2c(cc3ccc4cccc5ccc2c3c45)[nH]1
- photoluminescence quantum yield (in CCOC(C)=O): 0.95

SMILES: CCCCCCC(CCCCCC)N1C(=O)c2cccc3c(-c4ccc(OC)c5cccc(C)c45)ccc(c23)C1=O
- photoluminescence quantum yield (in CCCCCC): 0.34
- photoluminescence quantum yield (in CCCCCCCCCCCCCC): 0.34
- photoluminescence quantum yield (in CCCCCCCCCCCO): 0.28
- photoluminescence quantum yield (in CCCCO): 0.047
- photoluminescence quantum yield (in CN(C)C=O): 0.055
- photoluminescence quantum yield (in Cc1ccccc1): 0.19
- photoluminescence quantum yield (in ClC(Cl)Cl): 0.4

SMILES: CCCC1=Cc2nc1ccc1[nH]c(cc1CCO)c1nc(ccc3[nH]c2cc3CCC)C(CCO)=C1
- photoluminescence quantum yield (in Cc1ccccc1): 0.4

SMILES: CC(=O)Nc1ccc(C2=C/C(=C\c3ccc(C#N)cc3)C(=O)O2)cc1
- photoluminescence quantum yield (in C1COCCO1): 0.437

SMILES: COc1ccc(C2=c3sc(-c4ccc(OC)cc4)cc3=[N+]3C2=Nc2c(-c4ccc(OC)cc4)c4sc(-c5ccc(OC)cc5)cc4n2[B-]3(F)F)cc1
- photoluminescence quantum yield (in ClC(Cl)Cl): 0.1

SMILES: CCCCN(CCCC)c1ccc(/C=C/c2ccc3nc(/C=C/c4ccc(N(C)C)cc4)c(-c4ccccc4)nc3c2)cc1
- photoluminescence quantum yield (in C1COCCO1): 0.44
- photoluminescence quantum yield (in CC#N): 0.02
- photoluminescence quantum yield (in ClCCl): 0.24

SMILES: COC(=O)C12N=N[C@](C(=O)OC)(C3C4CCC(C4)C31)C1[C@@H]3CC[C@@H](C3)[C@H]12 (some centres not stated)
- photoluminescence quantum yield (in CC#N): 0.09

SMILES: COc1cc2c3sc4ccccc4c3c3cncnc3c2c(OC)c1OC
- photoluminescence quantum yield (in ClCCl): 0.09

SMILES: Cn1c(=O)cc(C(=O)c2ccccc2)c2sc(-c3ccc(N(c4ccccc4)c4ccccc4)cc3)cc21
- photoluminescence quantum yield (in ClCCl): 0.05

SMILES: CCCCCCCCn1c(=O)c2cc3c(-c4ccc(N(c5ccccc5)c5ccccc5)cc4)c4cc5c(=O)n(CCCCCCCC)c(=O)c5cc4c(-c4ccc(N(c5ccccc5)c5ccccc5)cc4)c3cc2c1=O
- photoluminescence quantum yield (in ClC(Cl)Cl): 0.03

SMILES: CCCC1=CC2=C(c3c(C)cc(C)cc3C)c3cc(CCC)c(-c4ccc5ccc6cccc7ccc4c5c67)n3[B-](F)(F)[N+]2=C1c1ccc2ccc3cccc4ccc1c2c34
- photoluminescence quantum yield (in ClC(Cl)Cl): 0.64

SMILES: c1ccc([B-]2(c3ccccc3)Oc3ccc4ccccc4c3-c3c4ccccc4cn[n+]32)cc1
- photoluminescence quantum yield (in Cc1ccccc1): 0.15

SMILES: CCOC(=O)c1cc(C(=O)OCC)c2ccccc2n1
- photoluminescence quantum yield (in CCO): 0.006

SMILES: C1=Cc2nc1c(-c1cccs1)c1ccc([nH]1)c(-c1cccs1)c1nc(c(-c3cccs3)c3ccc([nH]3)c2-c2cccs2)C=C1
- photoluminescence quantum yield (in CN(C)C=O): 0.012
- photoluminescence quantum yield (in ClCCl): 0.0046

SMILES: C(=C\c1ncnc2ccccc12)/c1ccc(N(c2ccccc2)c2ccccc2)cc1
- photoluminescence quantum yield (in ClCCl): 0.25

SMILES: CCCCN1c2ccccc2B(c2ccccc2C(F)(F)F)c2ccccc21
- photoluminescence quantum yield (in ClCCl): 0.9

SMILES: O=c1c2cc(C#Cc3ccccc3)ccc2nc2ccc(C#Cc3ccccc3)cn12
- photoluminescence quantum yield (in ClCCl): 0.41

SMILES: c1ccc(-c2cc(-c3ccccc3)cc(-c3ccccc3)c2)cc1
- photoluminescence quantum yield (in C1COCCO1): 0.1

SMILES: CC1(C)c2ccccc2N(c2ccc(-c3nc4cccc5c4n3-c3ccccc3C5(C)C)cc2)c2ccccc21
- photoluminescence quantum yield (in Cc1ccccc1): 0.34
- photoluminescence quantum yield (in O=P(c1ccccc1)(c1ccccc1)c1ccccc1Oc1ccccc1P(=O)(c1ccccc1)c1ccccc1): 0.51

SMILES: O=S(=O)(c1ccc(-c2ccc3c(c2)c2ccccc2n3-c2ccccc2)cc1)c1ccc(-c2ccc3c(c2)c2ccccc2n3-c2ccccc2)cc1
- photoluminescence quantum yield (in Cc1ccccc1): 1

SMILES: CC[C@H](C)COc1ccc(C2=C3C(C)=CC(C)=[N+]3[B-](F)(F)n3c(C)cc(C)c32)cc1
- photoluminescence quantum yield (in ClCCl): 0.87
